# Experimental data from patent US20070128217A1 (priority 2003, published 2007).
# Key:
# [1] = system: control sera (pooled serum of ten healthy LUMC hospital workers; commercial negative donor pooled serum from the Dutch bloodbank); format: binding, human; parameters: Binding of Control serum LUMC to linear peptides / Binding of Control serum Blood-bank to linear peptides / Binding of Control serum LUMC to looped peptides / Binding of Control Serum Blood-Bank to Looped peptides / Binding of Control serum LUMC to linear peptides of the protein M of SARS-CoV Urbani / Binding of Control serum Blood-bank to linear peptides of the protein M of SARS-CoV Urbani / Binding of Control serum LUMC to looped peptides of the protein M of SARS-CoV Urbani / Binding of Control Serum Blood-Bank to Looped peptides of the protein M of SARS-CoV Urbani: unit not given here
# [2] = system: rabbit serum obtained by immunizing a rabbit with the SARS-CoV strain Frankfurt 1; format: binding; parameters: Binding of a rabbit serum to linear peptides / Binding of a rabbit serum to looped peptides / Rabbit serum linear peptides / Rabbit serum looped peptides / Binding of a rabbit serum to linear peptides of protein N of SARS-CoV Urbani (Rabbit serum linear peptides) / Binding of a rabbit serum to looped/cyclic peptides of protein N of SARS-CoV Urbani (Rabbit serum looped peptides): unit not given here
# [3] = system: recombinant human anti-SARS-CoV antibody 03-018; format: binding; parameters: Binding of antibody 03-018 to linear peptides of the N protein of SARS-CoV Urbani / Binding of antibody 03-018 to looped/cyclic peptides of the N protein of SARS-CoV Urbani: unit not given here
# [4] = system: antibodies in sera from SARS patients (sera 1a, 1b, 2, 6, 37, 62, London, SARS-yellow, SARS-green); format: binding, human; parameters: Binding of serum 6 to linear peptides of protein X1 of SARS-CoV Urbani / Binding of serum 37 to linear peptides of protein X1 of SARS-CoV Urbani / Binding of serum 6 to looped/cyclic peptide (PEPSCAN-ELISA) / Binding of serum 37 to looped/cyclic peptide (PEPSCAN-ELISA) / Binding of serum 37 to looped/cyclic peptides of protein X1 of SARS-CoV Urbani / Binding of serum 6 to linear peptides of protein X2 / Binding of serum 37 to linear peptides of protein X2 / Binding of serum 37 to looped/cyclic peptides of protein X2 of SARS-CoV Urbani / Binding of serum 6 to linear peptides of protein M of SARS-CoV Urbani / Binding of serum 37 to linear peptides of protein M of SARS-CoV Urbani / Binding of serum 6 to looped/cyclic peptides of protein M of SARS-CoV Urbani / Binding of serum 37 to looped/cyclic peptides of protein M of SARS-CoV Urbani / Binding of serum 6 to linear peptides of protein X3 of SARS-CoV Urbani / Binding of serum 37 to linear peptides of protein X3 of SARS-CoV Urbani / Binding of serum 37 to looped/cyclic peptides of protein X3 of SARS-CoV Urbani / Binding of serum 6 to linear peptides of protein X4 of SARS-CoV Urbani / Binding of serum 37 to linear peptides of protein X4 of SARS-CoV Urbani / Binding of serum 37 to looped/cyclic peptides of protein X4 of SARS-CoV Urbani / Binding of serum 6 to linear peptides of protein X5 of SARS-CoV Urbani / Binding of serum 37 to linear peptides of protein X5 of SARS-CoV Urbani / Binding of serum 37 to looped/cyclic peptides of protein X5 of SARS-CoV Urbani / Binding of serum 6 to linear peptides of protein N of SARS-CoV Urbani / Binding of serum 37 to linear peptides of protein N of SARS-CoV Urbani / Binding of serum 6 to linear peptide (PEPSCAN-ELISA) / Binding of serum 1a to looped/cyclic peptides of protein N of SARS-CoV Urbani / Binding of serum 1b to looped/cyclic peptides of protein N of SARS-CoV Urbani / Binding of serum 2 to looped/cyclic peptides of protein N of SARS-CoV Urbani / Binding of serum 6 to looped/cyclic peptides of protein N of SARS-CoV Urbani / Binding of serum 37 to looped/cyclic peptides of protein N of SARS-CoV Urbani / Binding of serum 62 to looped/cyclic peptides of protein N of SARS-CoV Urbani / Binding of serum London to looped/cyclic peptides of protein N of SARS-CoV Urbani / Binding of serum SARS-green to looped/cyclic peptides of protein N of SARS-CoV Urbani: unit not given here
Sequence,Binding of a rabbit serum to linear peptides of protein N of SARS-CoV Urbani (Rabbit serum linear peptides) [2],Binding of a rabbit serum to looped/cyclic peptides of protein N of SARS-CoV Urbani (Rabbit serum looped peptides) [2],Binding of antibody 03-018 to linear peptides of the N protein of SARS-CoV Urbani [3],Binding of antibody 03-018 to looped/cyclic peptides of the N protein of SARS-CoV Urbani [3],Binding of serum 1a to linear peptides of protein N of SARS-CoV Urbani [4],Binding of serum 1a to looped/cyclic peptides of protein N of SARS-CoV Urbani [4],Binding of serum 1b to linear peptides of protein N of SARS-CoV Urbani [4],Binding of serum 1b to looped/cyclic peptides of protein N of SARS-CoV Urbani [4],Binding of serum 2 to linear peptides of protein N of SARS-CoV Urbani [4],Binding of serum 2 to looped/cyclic peptides of protein N of SARS-CoV Urbani [4],Binding of serum 6 to linear peptides of protein N of SARS-CoV Urbani [4],Binding of serum 6 to looped/cyclic peptides of protein N of SARS-CoV Urbani [4],Binding of serum 37 to linear peptides of protein N of SARS-CoV Urbani [4],Binding of serum 37 to looped/cyclic peptides of protein N of SARS-CoV Urbani [4],Binding of serum 62 to linear peptides of protein N of SARS-CoV Urbani [4],Binding of serum 62 to looped/cyclic peptides of protein N of SARS-CoV Urbani [4],Binding of serum London to linear peptides of protein N of SARS-CoV Urbani [4],Binding of serum London to looped/cyclic peptides of protein N of SARS-CoV Urbani [4],Binding of serum SARS-green to looped/cyclic peptides of protein N of SARS-CoV Urbani [4],Binding of serum SARS-yellow to looped/cyclic peptides of protein N of SARS-CoV Urbani [4],also measured
DFSRQLQNSMSGASA,0.5,0.6,0.1,0.2,0.2,0.3,0.1,0.1,0.2,0.4,0.2,0.2,0.7,0.4,0.6,0.2,0.5,0.3,0.4,0.2,Control Serum Blood-Bank Looped peptides [1]: 0.5; Control serum Blood-bank linear peptides [1]: 0.6; Control serum LUMC linear peptides [1]: 0.6; Control serum LUMC looped peptides [1]: 0.4; Binding of serum SARS-green to linear peptides of protein N of SARS-CoV Urbani [4]: 0.3; Binding of serum SARS-yellow to linear peptides of protein N of SARS-CoV Urbani [4]: 0.5
QNGGRNGARPKQRRP,0.2,0.4,0.2,0.3,0.2,0.3,0.1,0.1,0.3,0.3,0.2,0.2,0.7,0.6,0.8,0.4,0.5,0.3,0.6,0.5,Binding of Control Serum Blood-Bank to Looped peptides [1]: 0.6; Binding of Control serum Blood-bank to linear peptides [1]: 0.6; Binding of Control serum LUMC to linear peptides [1]: 0.8; Binding of Control serum LUMC to looped peptides [1]: 0.8; Binding of serum SARS-green to linear peptides of protein N of SARS-CoV Urbani [4]: 0.5; Binding of serum SARS-yellow to linear peptides of protein N of SARS-CoV Urbani [4]: 0.7
NQRSAPRITFGGPTD,0.3,0.4,–,–,0.2,0.4,0.1,0.3,0.1,0.4,0.1,0.2,0.7,0.6,0.6,0.4,0.5,0.4,0.5,0.7,Binding of Control Serum Blood-Bank to Looped peptides [1]: 0.6; Binding of Control serum Blood-bank to linear peptides [1]: 0.6; Binding of Control serum LUMC to linear peptides [1]: 0.5; Binding of Control serum LUMC to looped peptides [1]: 0.7; Recognition of the peptide by antibody 03-018 [3]: recognized; Binding of serum SARS-green to linear peptides of protein N of SARS-CoV Urbani [4]: 0.3; Binding of serum SARS-yellow to linear peptides of protein N of SARS-CoV Urbani [4]: 0.5
AEASKKPRQKRTATK,0.2,0.1,0.1,0.2,–,0.2,–,0.1,–,0.2,–,0.1,–,0.4,–,0.3,–,0.3,0.1,0.2,Binding of Control Serum Blood-Bank to Looped peptides [1]: 0.4; Binding of Control serum Blood-bank to linear peptides [1]: 0.8; Binding of Control serum LUMC to linear peptides [1]: 0.8; Binding of Control serum LUMC to looped peptides [1]: 0.4; Binding of serum 1a to linear peptide (PEPSCAN-ELISA) [4]: 0.2; Binding of serum 1b to linear peptide (PEPSCAN-ELISA) [4]: 0.1; Binding of serum 2 to linear peptide (PEPSCAN-ELISA) [4]: 0.2; Binding of serum 6 to linear peptide (PEPSCAN-ELISA) [4]: 0.3; Binding of serum 37 to linear peptide (PEPSCAN-ELISA) [4]: 0.7; Binding of serum 62 to linear peptide (PEPSCAN-ELISA) [4]: 0.7; Binding of serum London to linear peptide (PEPSCAN-ELISA) [4]: 0.4; Binding of serum SARS-green to linear peptide (PEPSCAN-ELISA) [4]: 0.4; Binding of serum SARS-yellow to linear peptide (PEPSCAN-ELISA) [4]: 0.7
